The conditions of series [1]: Crystal; DTA.
Series [2] can be described thus: Molar enthalpy of transition or fusion. Particulars: Crystal; DSC.

Here are results for one molecule from the NIST ThermoML archive (doi:10.1021/je700234e).

± gives the expanded uncertainty stated by the source.

`O=S1(=O)c2ccccc2-c2ccccc21` [dibenzothiophene sulfone]: the Normal melting temperature in series [1] stood at 236.1 ± 0.5 °C. Besides, the “Molar enthalpy of transition or fusion” value in series [2] was found to be 6.49 ± 0.196 kcal/mol.
